Assay [1] deals with T1, progesterone receptor (PR) (Homo sapiens, UniProt P06401).
T1 construct: of the progesterone receptor (PR, amino acids 680-933); expressed in transfected cells; host or cells: CHO K1
T1 sequence (P06401 680-933): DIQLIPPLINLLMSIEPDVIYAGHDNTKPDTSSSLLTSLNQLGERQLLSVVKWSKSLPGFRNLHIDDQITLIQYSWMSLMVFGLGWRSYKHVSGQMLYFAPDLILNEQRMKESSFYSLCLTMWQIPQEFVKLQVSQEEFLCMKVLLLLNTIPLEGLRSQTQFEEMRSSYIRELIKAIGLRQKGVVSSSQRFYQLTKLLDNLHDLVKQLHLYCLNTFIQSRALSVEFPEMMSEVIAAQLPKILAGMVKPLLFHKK
In words: Cellular in vitro assay, GAL4-PR chimera luciferase reporter in CHO K1 cells (selectivity). Type of assay: cell-based. Particulars: antagonism vs progesterone; CHO K1 GAL4-PR LBD luciferase reporter. The source says: (§1) 1. Cellular In Vitro Assay to Determine the Inhibitory MR Activity and MR Selectivity Compared with Other Steroid Hormone Receptors
(§2) Antagonists of the human mineralocorticoid receptor (MR) are identified, and the activity of the compounds described herein is quantified with the aid of a recombinant cell line. The cell is originally derived from a hamster ovary epithelial cell (Chinese Hamster Ovary, CHO K1, ATCC: American Type Culture Collection, VA 20108, USA).
(§3) An established chimera system in which the ligand-binding domains of human steroid hormone receptors are fused to the DNA-binding domain of the yeast transcription factor GAL4 is used in this CHO K1 cell line. The GAL4-steroid hormone receptor chimeras produced in this way are cotransfected and stably expressed with a reporter construct in the CHO cells.
(§4) To generate the GAL4-steroid hormone receptor chimeras, the GAL4 DNA-binding domain (amino acids 1-147) from the vector pFC2-dbd (from Stratagene) is cloned with the PCR-amplified ligand-binding domains of the mineralocorticoid receptor (MR, amino acids 734-985), of the progesterone receptor (PR, amino acids 680-933) and of the androgen receptor (AR, amino acids 667-919) into the vector pIRES2 (from Clontech). The reporter construct, which comprises five copies of the GAL4 binding site upstream of a thymidine kinase promoter, leads to expression of firefly luciferase (Photinus pyralis) after activation and binding of the GAL4-steroid hormone receptor chimeras by the respective specific agonists aldosterone (MR), dexamethasone (GR), progesterone (PR) and dihydrotestosterone (AR).
(§5) The MR, PR and AR cells are plated out in medium (Optimem, 2.5% FCS, 2 mM glutamine, 10 mM HEPES) in 96- (or 384- or 1536-)well microtiter plates on the day before the assay and are kept in a cell incubator (96% humidity, 5% v/v CO2, 37° C.). On the day of the assay, the substances to be tested are taken up in the abovementioned medium and added to the cells. About 10 to 30 minutes after addition of the test substances, the respective specific agonists of the steroid hormone receptors are added. After a further incubation time of 5 to 6 hours, the luciferase activity is measured with the aid of a video camera. The measured relative light units as a function of the substance concentration result in a sigmoidal stimulation curve. The IC50 values are calculated with the aid of the GraphPad PRISM computer program (Version 3.02).

The next assay deals with T2, CYP3A4 (Homo sapiens, UniProt P08684).
T2 construct: using human liver microsomes (pool from various individuals); from tissue; host or cells: human liver microsomes (pool from various individuals)
T2 sequence (P08684 whole entry): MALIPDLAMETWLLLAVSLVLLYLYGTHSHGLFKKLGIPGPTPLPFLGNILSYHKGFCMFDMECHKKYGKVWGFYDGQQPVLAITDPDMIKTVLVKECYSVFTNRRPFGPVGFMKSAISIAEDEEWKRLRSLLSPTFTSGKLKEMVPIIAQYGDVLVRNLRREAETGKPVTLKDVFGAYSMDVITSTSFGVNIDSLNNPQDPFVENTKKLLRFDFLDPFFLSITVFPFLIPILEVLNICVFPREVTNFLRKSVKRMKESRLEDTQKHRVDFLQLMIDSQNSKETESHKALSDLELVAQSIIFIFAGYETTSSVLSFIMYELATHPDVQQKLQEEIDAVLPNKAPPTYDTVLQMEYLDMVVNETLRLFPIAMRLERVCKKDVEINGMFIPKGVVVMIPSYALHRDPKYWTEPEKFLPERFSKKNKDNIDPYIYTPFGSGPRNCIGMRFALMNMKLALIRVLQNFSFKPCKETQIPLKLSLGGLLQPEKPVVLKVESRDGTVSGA
In words: CYP inhibition assay with human liver microsomes. Type of assay: in vitro ADME. The source says: Inhibitory properties of an active ingredient on the cytochromes P450 (CYP) of the human body may entail extensive clinical effects (drug interactions) because most of the prescribed medicaments are degraded (metabolized) by these enzymes. The ones involved in this are in particular the CYP isoenzymes of the 1A and 2C families, CYP2D6 and, with a proportion of almost 50%, CYP3A4. In order to preclude or minimize these possible drug interactions (Drug-Drug Interactions, DDI), the ability of substances to be able to inhibit CYP1A2, CYP2C8, CYP2C9, CYP2D6 and CYP3A4 in humans is investigated using human liver microsomes (pool from various individuals). This takes place by measuring CYP isoform-specific metabolites formed from standard substrates such as, for example, phenacetin, amodiaquin, diclofenac, dextromethorphan, midazolam and testosterone. The inhibitory effects are investigated at six different concentrations of the test compounds (1.5, 3.1, 6.3, 12.5, 25 and 50 μM as maximum concentration or 0.6, 1.3, 2.5, 5, 10 and 20 μM as maximum concentration), comparing with the extent of the CYP isoform-specific metabolite formation of the standard substrates in the absence of the test compounds, and calculating the corresponding IC50 values. CYP isoform-specific standard inhibitors such as, for example, fluvoxamine, quercetin, sulfaphenazole, fluoxetine and ketoconazole serve as control of the results obtained. In order to obtain indications of the possible mechanism-based inhibitors (MBI) on CYP3A4, the human liver microsomes are incubated in the presence of the inhibitor to be investigated for 30 minutes before the addition of midazolam or testosterone as standard substrates of CYP3A4. A reduction in the IC50 obtained by comparison with the mixture without preincubation serves as an indicator of a mechanism-based inhibition. Mibefradil serves as positive control.
The incubations of the standard substrates with human liver microsomes (23-233 μg/mL) in the presence of the test compound (as potential inhibitor) are carried out in 96-well plates in a workstation (Tecan, Genesis, Crailsheim, Germany) at 37° C. The incubation times are 15-20 minutes. The test compounds are preferably dissolved in acetonitrile (1.0 or 2.5 mM stock solution). The 96-well plates are produced by sequential addition of a stock solution of NADP+, EDTA, glucose 6-phosphate and glucose-6-phosphate dehydrogenase in phosphate buffer (pH 7.4), the test compound, and a solution of standard substrate and human liver microsomes in phosphate buffer (pH 7.4). The total volume is 200 μl. The corresponding control incubations with and without standard inhibitor also take place on the 96-well plate. The incubations are stopped after the respective incubation time by adding 100 μl of acetonitrile in which there is a suitable internal standard. Precipitated proteins are removed by centrifugation (3000 rpm, 10 minutes, 10° C.). The resulting supernatants of the respective plates are combined on one plate and analyzed by LC-MS/MS. The […] values are generated from the resulting measured data and used to assess the inhibitory potential of the test compound.

The target in assay [2] is T3, human mineralocorticoid receptor (MR) (Homo sapiens, UniProt P08235).
T3 construct: expressed in transfected cells; host or cells: CHO K1
T3 sequence (P08235 734-984 limits assumed): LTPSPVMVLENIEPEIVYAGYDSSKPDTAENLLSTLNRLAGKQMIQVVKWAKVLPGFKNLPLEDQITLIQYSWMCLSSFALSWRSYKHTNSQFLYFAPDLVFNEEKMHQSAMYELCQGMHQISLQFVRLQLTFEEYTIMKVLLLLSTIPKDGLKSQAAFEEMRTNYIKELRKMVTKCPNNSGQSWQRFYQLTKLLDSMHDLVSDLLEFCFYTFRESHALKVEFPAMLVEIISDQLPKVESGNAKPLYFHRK
Nature of the assay: Cellular in vitro assay, GAL4-MR chimera luciferase reporter in CHO K1 cells (inhibitory MR activity). Type of assay: cell-based. Particulars: antagonism vs aldosterone; CHO K1 GAL4-MR LBD luciferase reporter.
From the text: as §1, §2, §3, §4, §5

The next assay deals with T4, androgen receptor (AR) (Homo sapiens, UniProt P10275).
T4 construct: of the androgen receptor (AR, amino acids 667-919); expressed in transfected cells; host or cells: CHO K1
T4 sequence (P10275 668-920): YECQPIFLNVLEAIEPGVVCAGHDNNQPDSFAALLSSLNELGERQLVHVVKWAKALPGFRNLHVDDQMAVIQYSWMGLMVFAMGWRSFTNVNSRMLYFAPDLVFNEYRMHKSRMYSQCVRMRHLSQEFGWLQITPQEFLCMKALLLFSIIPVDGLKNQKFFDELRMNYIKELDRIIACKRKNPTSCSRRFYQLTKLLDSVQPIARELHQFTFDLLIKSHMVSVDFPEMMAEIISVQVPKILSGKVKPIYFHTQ
In words: Cellular in vitro assay, GAL4-AR chimera luciferase reporter in CHO K1 cells (selectivity). Particulars: antagonism vs dihydrotestosterone; CHO K1 GAL4-AR LBD luciferase reporter. Type of assay: cell-based.
From the text: as §1, §2, §3, §4, §5

Where [3] appears, read: 30 min preincubation with test compound before substrate, read-out: CYP 3A4 Preincubation, 30 min.
The mark [4] stands for this setting: without preincubation, read-out: CYP 3A4 Coincubation.

Like-named read-outs stand apart in the source and are kept apart here. Bounds are passed on as bounds.

Take `C[S+]([O-])Cc1cccc2c(C3(C4CC4)CCc4cc(F)ccc43)c[nH]c12` (mixture of isomers) [Example 120, 3-(1-Cyclopropyl-5-fluoro-2,3-dihydro-1H-inden-1-yl)-7-[(methylsulfinyl)methyl]-1H-indole]: the IC50 in assay [1] is 5.51 µM; at CYP3A4 (setting [3]), 14.4 µM; at CYP3A4 (setting [4]) it was above 20 µM; in assay [2], 0.15 µM.
`CS(=O)(=O)Cc1cccc2c(C(c3ccc(Cl)cc3)C3CC3(F)F)c[nH]c12` (single isomer, unassigned) [Example 261-2, 3-[(4-Chlorophenyl)(2,2-difluorocyclopropyl)methyl]-7-[(methylsulfonyl)methyl]-1H-indole]: the IC50 is 5.24 µM in assay [1]; 15 µM at CYP3A4 (setting [3]); above 20 µM at CYP3A4 (setting [4]); 0.028 µM in assay [2]; 6.06 µM at androgen receptor (AR).
On to `Cc1ccc(C(CCC#N)c2c[nH]c3c(CS(C)(=O)=O)cccc23)cc1` (stereo not shown) [Example 166, 4-(4-Methylphenyl)-4-{7-[(methylsulfonyl)methyl]-1H-indol-3-yl}butanonitrile], for which the IC50 is 10 µM in assay [1], 17.6 µM on CYP3A4 (setting [3]), above 20 µM at CYP3A4 (setting [4]) and 0.22 µM in assay [2].
In the case of `CC(CCC#N)(c1ccc(Cl)cc1)c1c[nH]c2c(CS(C)(=O)=O)cccc12` (stereo not shown) [Example 171, 4-(4-Chlorophenyl)-4-{7-[(methylsulfonyl)methyl]-1H-indol-3-yl}-pentanonitrile], the IC50 in assay [1] is 2.23 µM; on CYP3A4 (setting [3]) it was 7.8 µM; at CYP3A4 (setting [4]) it was above 20 µM; in assay [2] it was 0.03 µM; against androgen receptor (AR), 3.2 µM.
In the case of `CS(=O)(=O)Cc1cccc2c(C(c3ccc(Cl)cc3Cl)C3CC3)c[nH]c12` (stereo not shown) [Example 242, 3-[Cyclopropyl(2,4-dichlorophenyl)methyl]-7-[(methylsulfonyl)methyl]-1H-indole], the IC50 in assay [1] is 3.77 µM; at CYP3A4 (setting [3]), 15.8 µM; on CYP3A4 (setting [4]), above 20 µM; in assay [2], 0.066 µM; against androgen receptor (AR), 1.39 µM.
For the compound `CS(=O)(=O)Cc1cccc2c(C(c3ccc(C(F)(F)F)cc3)C3CC3)c[nH]c12` (stereo not shown) [Example 244, 3-{Cyclopropyl[4-(trifluoromethyl)phenyl]methyl}-7-[(methylsulfonyl)methyl]-1H-indole], the IC50 was above 20 µM on CYP3A4 (setting [3]), above 20 µM at CYP3A4 (setting [4]) and 0.17 µM in assay [2].
Turning to `CS(=O)(=O)Cc1cccc2c(C(c3ccc(C(F)(F)F)cc3Cl)C3CC3)c[nH]c12` (stereo not shown) [Example 245, 3-{[2-Chloro-4-(trifluoromethyl)phenyl](cyclopropyl)methyl}-7-[(methylsulfonyl)methyl]-1H-indole], the IC50 on CYP3A4 (setting [3]) was above 20 µM; at CYP3A4 (setting [4]), above 20 µM; in assay [2], 0.12 µM; against androgen receptor (AR), 3.45 µM.
Turning to `CS(=O)(=O)Cc1cccc2c(C(c3ccc(Cl)cc3)C3CC3)c[nH]c12` (stereo not shown) [Example 249, 3-[(4-Chlorophenyl)(cyclopropyl)methyl]-7-[(methylsulfonyl)methyl]-1H-indole], the IC50 in assay [1] is 9.73 µM; on CYP3A4 (setting [3]) it was 18.3 µM; on CYP3A4 (setting [4]), above 20 µM; in assay [2], 0.069 µM; against androgen receptor (AR), 3.45 µM.
The corresponding values for `CS(=O)(=O)Cc1cccc2c(C(c3ccc(F)cc3F)C3CC3)c[nH]c12` (stereo not shown) [Example 250, 3-[Cyclopropyl(2,4-difluorophenyl)methyl]-7-[(methylsulfonyl)methyl]-1H-indole] are 10 µM, 19.4 µM, above 20 µM, 0.27 µM and 1.6 µM.
Turning to `CS(=O)(=O)Cc1cccc2c(C(c3c(F)cc(Cl)cc3F)C3CC3)c[nH]c12` (stereo not shown) [Example 252, 3-[(4-Chloro-2,6-difluorophenyl)(cyclopropyl)methyl]-7-[(methylsulfonyl)methyl]-1H-indole], the IC50 in assay [1] was 10 µM; on CYP3A4 (setting [3]), above 20 µM; at CYP3A4 (setting [4]), above 20 µM; in assay [2] it was 0.071 µM; against androgen receptor (AR), 3.03 µM.
As to `CS(=O)(=O)Cc1cccc2c(C(c3ccc(Cl)cc3)C3CC3C#N)c[nH]c12` (stereo not shown) [Example 276, 2-[(4-Chlorophenyl){7-[(methylsulfonyl)methyl]-1H-indol-3-yl}methyl]cyclopropanecarbonitrile], the IC50 is 10 µM in assay [1], 18.2 µM at CYP3A4 (setting [3]), above 20 µM on CYP3A4 (setting [4]) and 0.024 µM in assay [2].

The record behind these values is patent US20110201564A1, “SUBSTITUTED 7-SULFANYLMETHYL, 7-SULFINYLMETHYL AND 7-SULFONYLMETHYL INDOLES AND USE THEREOF” (BAYER SCHERING PHARMA AKTIENGESELLSCHAFT, priority 2008, published 2011).
